We go through four compounds from patent publication US20040242590A1, “Pharmaceutical composition comprising gamma-butyrobetaine” (priority 2001, published 2004).

“Also recorded” adds a separate entry of the source. Where a name gives a salt, the structure may show the parent alone.

Data set [1] relates to intracorporeal pressure (corpus cavernosum penis). Kind of data set: intracorporeal pressure in narcotized rats, intracavernous injection. Type of data set: in vivo. The following applies: for Increase of intracorporeal pressure, % of papaverine: in % of the increase produced by papaverine. The method, then:
(§1) The influence of the experimental substances on the penile erection was evaluated using the experimental model, where changes of intracorporeal pressure was measured (Chen K K et al. J Urol, 1992;147:1124). Rats were anesthetized by sodium pentobarbital (50 mg/kg i.p. plus additionally 8 mg/kg/h i.v.). Body temperature was kept at 37-37.4° C. (rectal control) by heating lamp. Endotracheal tube was inserted to assure adequate respiration under anesthesia. Number 25 needle filled with heparinized saline was connected to pressure transducer and introduced into corpus cavernosum penis. Intracavernous pressure and II standard lead on an ECG was continuously recorded on physiograph DMP-4B (Narco Bio-Systems, USA). In some experiments arterial pressure in common carotid artery was also recorded. The effects of experimental substances were determined both at intravenous and intracavernous introduction route. For the intracorporeal injection the substances were dissolved in isotonic (0.9%) NaCl solution and the dose introduced in 0.05 ml of liquid. […] Gamma-butyrobetaine (GBB) was introduced separately and in combination with THP or phosphodiesterase inhibitor, in particular, sildenafil. Gamma-butyrobetaine (GBB) (intracavernous injection 0.02-0.1 mg per rat, usually 0.05 mg per rat; intravenously 2.0 mg/kg) and THP (intracavernous injection 0.2 mg per rat; intravenously 10.0 mg/kg) were introduced separately and as combination (GBB+THP).

In data set [2] the test system is intracavernous pressure (corpus cavernosum penis). Kind of data set: intracavernous pressure in narcotized rats, intravenous injection. Type of data set: in vivo. The following applies: for effect on intracorporeal pressure (in words): intravenous; for Changes of intracavernous pressure / Duration of effect / Reflectory increase of intracavernous pressure: intravenously: GBB 2.0 mg/kg, THP 10.0 mg/kg, sildenafil 3.0 mg/kg, papaverine 2.0 mg/kg. The method, then: as §1, with “Adult male rats, weighing 300-410 g were used. The influence” for “The influence”, “combination (GBB+THP). […] Since the intracavernous injection is not popular due to inconvenience to patient, intravenous route was selected for further evaluation.” for “combination (GBB+THP).”

The test system of data set [3] is copulating activity of male rats. As to the kind of experiment: rat copulating behaviour in state of physiological depression. Type of data set: in vivo, Wistar rats. The method, then:
The pharmacological effects of GBB, THP and their combination on the sexual activity of mammals was investigated by a model based on rat copulating behaviour in state of physiological depression.
Experiments were conducted on adult Wistar rats of both sexes with initial body weight of 300-330 g. During the experiment, the animals were kept in standard crates in groups of 6. The feed was a standartized diet R70 (LABFOR, Lactamin AB, Sweden). The room temperature was kept at 21-23° C., relative humidity at 65±10%, 12 hour light/darkness cycle. During one week before the experiment it was established that the average water consumption by the rats was 8.2-12% (average —10%) of their body mass.
Male rats were distributed randomly into 4 groups, each of 6 animals, and supplied for 6 weeks with the following aqueous solutions:
Group 1 (Control Group)—ding water without any additives;
Group 2 (GBB Group)—drinking water was supplemented by gamma-butyrobetaine (0.015% by weight), resulting in the average daily gamma-butyrobetaine intake of 15 mg/kg;
Group 3 (THP Group)—drinking water was supplemented by THP (0.06% by weight), resulting in the average daily THP intake of 60 mg/kg;
Group 4 (GBB+THP Group)—drinking water was supplemented by THP (0.06% by weight) and gamma-butyrobetaine (0.015% by weight), resulting in the average daily […]) intake of 60 mg/kg and gamma-butyrobetaine intake of 15 mg/kg.
The copulating activity of male rats was tested four times: after one week, after four weeks, after six weeks and 48-50 hours after the discontinuation of substance intake, when all animals were receiving drinking water without additives.
The tests were conducted between 10 and 12 a.m. 6 male rats of one group were placed into a clean, well illuminated crate (box). After 5 min. adaptation period 2 female rats were placed into the box for 10 minutes. For each male rat the following data were collected:
1) copulating intensity (number of copulations during the exposition period);
3) postcoital period—the behaviour of male rats during 5 min. period after the removal of females. The postcoital behaviour was characterized by following marks: 0—the animal is passive, lays down; 1—the rat is quiet; grooming; 2—the rat is mobile, rutting; 3—the animal is active, aggressive.
The female rats used were in the estrus phase, induced by i.p. injection of 0.2 ml 0.1% estradiol dipropionate 48 h before the test.

For data set [4] the following is noted: subc.; cited from earlier work.
Where [5] appears, read: 1 week of therapy, drinking water, GBB 15 mg/kg daily, THP 60 mg/kg daily.
Where [6] appears, read: 1 week of therapy, drinking water, GBB 15 mg/kg daily, THP 60 mg/kg daily, 10 min exposition.
Setting [7] is: 4 weeks of therapy, behaviour marks 0-3.
The mark [8] stands for this setting: 4 weeks of therapy, drinking water, GBB 15 mg/kg daily, THP 60 mg/kg daily.
Setting [9] is: 6 weeks of therapy, behaviour marks 0-3.
Where [10] appears, read: 6 weeks of therapy, drinking water, GBB 15 mg/kg daily, THP 60 mg/kg daily.
[11] abbreviates: Post-therapy (48-50 hours after discontinuation).
Setting [12] is: Post-therapy (48-50 hours after discontinuation), behaviour marks 0-3.

Turning to `COc1ccc(Cc2nccc3cc(OC)c(OC)cc23)cc1OC` [Papaverine, Papaverine hydrochloride], in data set [1] (dose 0.2 mg per rat), the Duration of effect came out at 8.8 ± 1.4 min; the “Increase of intracorporeal pressure” value was determined as 36.75 ± 4.1 mmHg; the “Increase of intracorporeal pressure, % of papaverine” value (“Increase … % of papaverine” below) stood at 100%. Also, in data set [2], the “effect on intracorporeal pressure (in words)” value (shortened to “effect … (in words)”) is listed as “little effect”, the “Changes of intracavernous pressure” value was determined as 0.6 ± 0.6 mm Hg, the Duration of effect is listed as 0.9 ± 0.9 min and the “Reflectory increase of intracavernous pressure” value worked out at 0.3 ± 0.3 mm Hg.

Take `CCCc1nn(C)c2c(=O)[nH]c(-c3cc(S(=O)(=O)N4CCN(C)CC4)ccc3OCC)nc12` [Sildenafil, sildenafil]: in data set [1] (dose 0.15 mg per rat), the Duration of effect was 7.5 ± 2.7 min; the “Increase of intracorporeal pressure” value is given as 38.5 ± 7.3 mmHg; the “Increase … % of papaverine” value is given as 104.8%. Also, the Duration of effect in data set [2] turned out to be 2.5 ± 1.1 min.

Consider `C[N+](C)(C)NCCC(=O)[O-]` [THP, 3-(2,2,2-trimethylhydrazinium)propionate], for which the “rat post-coital agitation period” value in data set [3] (1 week of therapy, behaviour marks 0-3 during 5 min after removal of females) came out at 1.0 ± 0.4; in data set [3] (setting [7]) it was 1.4 ± 0.5; in data set [3] (setting [9]) it was 1.8 ± 0.3; in data set [3] (setting [12]), 1.2 ± 0.4. Also, the “delay time before attempts of mounting” value amounted to 5.3 ± 1.0 min in data set [3] (setting [5]), 2.1 ± 0.5 min in data set [3] (setting [8]), 2.3 ± 0.5 min in data set [3] (setting [10]) and 2.4 ± 0.7 min in data set [3] (setting [11]). The number of copulations in data set [3] (setting [6]) is given as 0.5 ± 0.3; in data set [3] (setting [8]), 1.2 ± 0.4; in data set [3] (setting [10]), 0.8 ± 0.3; in data set [3] (setting [11]) it was 1.0 ± 0.3. Also, the “number of mounting attempts of male rats” value in data set [3] (setting [6]) amounted to 2.7 ± 0.6; in data set [3] (setting [8]), 3.0 ± 0.7; in data set [3] (setting [10]) it was 3.7 ± 0.5; in data set [3] (setting [11]), 3.4 ± 0.7. For the same compound, the “effect … (in words)” value in data set [1] is “did not produce significant changes”; in data set [2] it was “little effect”. Also, the “Increase … % of papaverine” value in data set [1] (dose 0.2 mg per rat) stood at 7.3%. Besides, the “Changes of intracavernous pressure” value in data set [2] was found to be 1.3 ± 0.9 mm Hg. In data set [2], the Duration of effect is recorded as 0.9 ± 0.5 min. For the same compound, the “Reflectory increase of intracavernous pressure” value in data set [2] came to 2.7 ± 1.2 mm Hg.

On to `C[N+](C)(C)CCCC(=O)[O-]` [GBB, gamma-butyrobetaine], for which the “delay time before attempts of mounting” value in data set [3] (setting [5]) is given as 3.7 ± 0.9 min; in data set [3] (setting [10]) it was 2.8 ± 0.9 min; in data set [3] (setting [11]), 2.6 ± 0.6 min. Besides, the number of copulations turned out to be 0.8 ± 0.3 in data set [3] (setting [6]), 1.3 ± 0.5 in data set [3] (setting [8]) and 0.7 ± 0.2 in data set [3] (setting [11]). In addition, the figures for the “rat post-coital agitation period” value in data set [3] (setting [7]), in data set [3] (setting [9]) and in data set [3] (setting [12]) were 1.2 ± 0.3, 1.5 ± 0.4 and 1.2 ± 0.3, respectively. Besides, the “number of mounting attempts of male rats” value is recorded as 3.7 ± 0.7 in data set [3] (setting [8]), 3.3 ± 0.6 in data set [3] (setting [10]) and 3.2 ± 0.5 in data set [3] (setting [11]). Besides, the “effect … (in words)” value in data set [1] is “pronounced dose-dependent, but relatively short-termed increase; also recorded: inferior to that of papaverine”; in data set [2] it was “highly efficient”. The “Increase … % of papaverine” value in data set [1] (dose 0.02 mg per rat) was determined as 30.6%; in data set [1] (dose 0.05 mg per rat), 85.7%. Moreover, the “Increase of intracorporeal pressure” value in data set [1] (dose 0.05 mg per rat) was determined as 31.5 ± 5.1 mmHg. Also, the Duration of effect in data set [2] was 2.8 ± 0.7 min. For the same compound, in data set [4], the LD50 is given as 7000 mg/kg.
